The record followed here is publication PMC10175918 (Communications Biology, 2023).

Holding throughout (assay): TGFα-shedding assay-based GPCR screening with chimeric Gα subunit proteins
Common to all, as to format: cell-based

In assay [1] the target is T1, 348 GPCRs (Homo sapiens, UniProt Q8TDU6).
T1 construct: expressed in transfected cells; host or cells: HEK293A
T1 sequence (Q8TDU6 1-330): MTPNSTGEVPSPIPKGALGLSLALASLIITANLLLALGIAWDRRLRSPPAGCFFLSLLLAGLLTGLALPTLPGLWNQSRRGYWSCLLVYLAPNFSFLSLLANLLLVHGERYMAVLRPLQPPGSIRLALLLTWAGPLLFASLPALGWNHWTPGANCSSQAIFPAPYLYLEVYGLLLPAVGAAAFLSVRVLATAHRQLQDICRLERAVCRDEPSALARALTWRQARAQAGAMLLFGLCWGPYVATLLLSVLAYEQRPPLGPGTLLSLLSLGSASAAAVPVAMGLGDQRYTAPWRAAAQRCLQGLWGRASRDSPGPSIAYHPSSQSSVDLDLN
As to conditions: 10µM, Favipiravir 100μM.

For assay [2], the target named is T2, 348 GPCRs (Homo sapiens, UniProt P32248).
T2 construct: expressed in transfected cells; host or cells: HEK293A
T2 sequence (P32248 25-378): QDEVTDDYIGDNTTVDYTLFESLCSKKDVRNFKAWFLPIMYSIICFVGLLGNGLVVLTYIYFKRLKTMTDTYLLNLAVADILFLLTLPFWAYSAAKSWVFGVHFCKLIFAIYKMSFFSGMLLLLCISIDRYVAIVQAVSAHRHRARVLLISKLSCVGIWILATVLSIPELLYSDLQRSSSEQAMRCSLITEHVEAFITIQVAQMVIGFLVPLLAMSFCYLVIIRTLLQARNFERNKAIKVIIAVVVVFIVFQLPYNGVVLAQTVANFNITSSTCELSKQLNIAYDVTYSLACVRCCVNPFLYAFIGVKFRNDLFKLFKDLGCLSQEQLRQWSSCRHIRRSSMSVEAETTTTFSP
To be noted: CCR7 (C-C motif chemokine receptor 7); 10µM, Favipiravir 100μM.

In assay [3] the target is T3, 348 GPCRs (Homo sapiens, UniProt O00222).
T3 construct: expressed in transfected cells; host or cells: HEK293A
T3 sequence (O00222 34-908): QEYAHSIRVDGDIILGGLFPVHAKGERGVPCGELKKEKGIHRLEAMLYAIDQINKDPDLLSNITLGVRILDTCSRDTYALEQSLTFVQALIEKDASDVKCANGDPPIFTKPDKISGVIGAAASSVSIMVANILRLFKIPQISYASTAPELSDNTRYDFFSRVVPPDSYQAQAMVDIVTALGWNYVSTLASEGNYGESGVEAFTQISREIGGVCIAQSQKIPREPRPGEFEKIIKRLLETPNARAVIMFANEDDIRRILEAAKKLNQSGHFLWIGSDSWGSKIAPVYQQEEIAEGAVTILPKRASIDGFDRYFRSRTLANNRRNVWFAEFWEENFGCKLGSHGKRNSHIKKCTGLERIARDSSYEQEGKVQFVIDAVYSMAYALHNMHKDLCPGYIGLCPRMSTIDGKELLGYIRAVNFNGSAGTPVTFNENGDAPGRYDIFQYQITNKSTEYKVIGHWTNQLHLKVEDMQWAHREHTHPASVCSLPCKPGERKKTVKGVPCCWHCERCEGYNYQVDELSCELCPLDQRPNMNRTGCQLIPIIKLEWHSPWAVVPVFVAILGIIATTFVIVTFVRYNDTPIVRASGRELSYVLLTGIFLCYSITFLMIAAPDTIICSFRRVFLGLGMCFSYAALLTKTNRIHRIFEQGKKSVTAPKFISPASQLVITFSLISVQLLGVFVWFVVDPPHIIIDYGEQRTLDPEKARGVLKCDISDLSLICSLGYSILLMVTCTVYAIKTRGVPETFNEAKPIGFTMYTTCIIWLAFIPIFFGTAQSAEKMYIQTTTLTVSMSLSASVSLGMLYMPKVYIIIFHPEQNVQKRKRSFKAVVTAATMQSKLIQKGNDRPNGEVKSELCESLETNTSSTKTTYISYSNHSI
To be noted: 10µM, Favipiravir 100μM.

The target in assay [4] is 348 GPCRs (Homo sapiens, UniProt P07550). To be noted: 10µM, Favipiravir 100μM.
Sequence of 348 GPCRs (Homo sapiens, UniProt P07550) (P07550 whole entry): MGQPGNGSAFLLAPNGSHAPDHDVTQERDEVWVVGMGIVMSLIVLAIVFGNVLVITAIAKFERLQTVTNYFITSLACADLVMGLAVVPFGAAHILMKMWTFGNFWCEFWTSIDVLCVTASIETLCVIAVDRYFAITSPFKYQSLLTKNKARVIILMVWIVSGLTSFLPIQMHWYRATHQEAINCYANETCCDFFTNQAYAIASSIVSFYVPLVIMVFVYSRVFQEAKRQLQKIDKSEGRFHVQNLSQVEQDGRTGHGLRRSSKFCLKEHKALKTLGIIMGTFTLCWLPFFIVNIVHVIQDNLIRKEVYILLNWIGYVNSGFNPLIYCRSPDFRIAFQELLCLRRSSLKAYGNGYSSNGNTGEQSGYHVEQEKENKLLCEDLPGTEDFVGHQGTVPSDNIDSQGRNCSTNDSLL
For assay [5], the target named is 348 GPCRs (Homo sapiens, UniProt P14416). To be noted: 10µM, Favipiravir 100μM.
Sequence of 348 GPCRs (Homo sapiens, UniProt P14416) (P14416 whole entry): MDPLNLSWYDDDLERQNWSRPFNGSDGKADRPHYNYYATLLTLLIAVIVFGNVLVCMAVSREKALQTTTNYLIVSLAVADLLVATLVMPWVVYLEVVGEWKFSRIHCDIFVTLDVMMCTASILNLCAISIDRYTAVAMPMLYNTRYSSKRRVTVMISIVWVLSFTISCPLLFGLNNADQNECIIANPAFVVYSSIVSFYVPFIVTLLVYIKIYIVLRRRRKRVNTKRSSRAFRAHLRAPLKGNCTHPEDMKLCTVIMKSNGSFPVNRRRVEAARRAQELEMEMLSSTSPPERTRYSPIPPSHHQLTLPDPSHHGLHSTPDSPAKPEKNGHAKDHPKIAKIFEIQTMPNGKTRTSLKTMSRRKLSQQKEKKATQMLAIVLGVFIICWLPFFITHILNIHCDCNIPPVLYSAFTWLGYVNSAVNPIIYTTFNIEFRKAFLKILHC
Assay [6] deals with T4, 348 GPCRs (Homo sapiens, UniProt P43088).
T4 construct: expressed in transfected cells; host or cells: HEK293A
T4 sequence (P43088 whole entry): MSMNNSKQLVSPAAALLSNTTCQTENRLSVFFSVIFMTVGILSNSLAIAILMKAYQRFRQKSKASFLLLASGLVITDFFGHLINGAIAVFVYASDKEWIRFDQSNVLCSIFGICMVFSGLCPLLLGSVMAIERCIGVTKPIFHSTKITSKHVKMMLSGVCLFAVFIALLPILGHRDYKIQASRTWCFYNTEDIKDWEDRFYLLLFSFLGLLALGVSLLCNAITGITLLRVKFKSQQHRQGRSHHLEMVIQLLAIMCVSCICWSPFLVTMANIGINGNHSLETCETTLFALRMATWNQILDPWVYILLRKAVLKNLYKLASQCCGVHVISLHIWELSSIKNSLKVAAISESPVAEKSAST
As to conditions: 10µM, Favipiravir 100μM.

For assay [7], the target named is T5, 348 GPCRs (Homo sapiens, UniProt Q9BZJ6).
T5 construct: expressed in transfected cells; host or cells: HEK293A
T5 sequence (Q9BZJ6 whole entry): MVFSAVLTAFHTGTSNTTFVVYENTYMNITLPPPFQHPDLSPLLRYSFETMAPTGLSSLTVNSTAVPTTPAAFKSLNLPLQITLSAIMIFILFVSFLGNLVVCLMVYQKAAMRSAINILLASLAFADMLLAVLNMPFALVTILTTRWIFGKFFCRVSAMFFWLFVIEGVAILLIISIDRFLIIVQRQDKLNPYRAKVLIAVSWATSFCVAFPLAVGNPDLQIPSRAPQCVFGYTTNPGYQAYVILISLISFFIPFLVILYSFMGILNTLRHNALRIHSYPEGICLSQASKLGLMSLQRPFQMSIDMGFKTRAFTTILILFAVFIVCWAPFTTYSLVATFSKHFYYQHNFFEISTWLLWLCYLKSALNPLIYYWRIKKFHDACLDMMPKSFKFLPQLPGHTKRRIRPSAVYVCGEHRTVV

The target in assay [8] is T6, 348 GPCRs (Homo sapiens, UniProt P30556).
T6 construct: expressed in transfected cells; host or cells: HEK293A
T6 sequence (P30556 1-359): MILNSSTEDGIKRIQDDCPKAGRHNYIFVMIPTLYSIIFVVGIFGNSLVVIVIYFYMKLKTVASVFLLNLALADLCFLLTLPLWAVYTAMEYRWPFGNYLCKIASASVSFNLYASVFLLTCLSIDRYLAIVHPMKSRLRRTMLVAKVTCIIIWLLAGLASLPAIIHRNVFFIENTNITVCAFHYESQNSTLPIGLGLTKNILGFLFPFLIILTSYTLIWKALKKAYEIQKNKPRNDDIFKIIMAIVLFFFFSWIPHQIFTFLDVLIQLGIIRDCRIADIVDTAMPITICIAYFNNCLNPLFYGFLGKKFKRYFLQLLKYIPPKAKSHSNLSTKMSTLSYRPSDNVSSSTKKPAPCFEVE
To be noted: 10µM, Favipiravir 100μM.

For assay [9], the target named is 348 GPCRs (Homo sapiens, UniProt P31391). To be noted: 10µM, Favipiravir 100μM.
Sequence of 348 GPCRs (Homo sapiens, UniProt P31391) (P31391 whole entry): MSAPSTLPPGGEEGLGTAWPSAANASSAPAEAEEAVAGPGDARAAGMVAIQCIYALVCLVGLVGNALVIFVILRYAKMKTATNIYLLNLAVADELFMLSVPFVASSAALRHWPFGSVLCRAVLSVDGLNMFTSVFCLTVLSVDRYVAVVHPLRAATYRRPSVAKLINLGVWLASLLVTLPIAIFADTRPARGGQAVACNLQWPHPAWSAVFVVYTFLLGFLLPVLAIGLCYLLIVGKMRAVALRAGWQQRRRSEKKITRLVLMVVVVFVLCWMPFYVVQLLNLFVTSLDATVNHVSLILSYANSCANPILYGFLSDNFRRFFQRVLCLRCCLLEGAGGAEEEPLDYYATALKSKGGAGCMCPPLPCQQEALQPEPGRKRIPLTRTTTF
Assay [10] addresses 348 GPCRs (Homo sapiens, UniProt P41146). As to conditions: 10µM, Favipiravir 100μM.
The target of assay [11] is T7, 348 GPCRs (Homo sapiens, UniProt Q86SM5).
T7 construct: expressed in transfected cells; host or cells: HEK293A
T7 sequence (Q86SM5 1-289): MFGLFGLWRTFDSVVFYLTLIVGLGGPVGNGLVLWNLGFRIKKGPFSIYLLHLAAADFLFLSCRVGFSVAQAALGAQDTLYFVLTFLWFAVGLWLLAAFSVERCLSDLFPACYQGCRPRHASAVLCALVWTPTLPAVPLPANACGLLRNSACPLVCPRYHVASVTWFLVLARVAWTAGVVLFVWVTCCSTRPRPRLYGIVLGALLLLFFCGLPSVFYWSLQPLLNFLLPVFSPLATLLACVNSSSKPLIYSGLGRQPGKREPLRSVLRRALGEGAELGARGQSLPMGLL
To be noted: 10µM, Favipiravir 100μM.

The target of assay [12] is T8, 348 GPCRs (Homo sapiens, UniProt P49286).
T8 construct: expressed in transfected cells; host or cells: HEK293A
T8 sequence (P49286 1-362): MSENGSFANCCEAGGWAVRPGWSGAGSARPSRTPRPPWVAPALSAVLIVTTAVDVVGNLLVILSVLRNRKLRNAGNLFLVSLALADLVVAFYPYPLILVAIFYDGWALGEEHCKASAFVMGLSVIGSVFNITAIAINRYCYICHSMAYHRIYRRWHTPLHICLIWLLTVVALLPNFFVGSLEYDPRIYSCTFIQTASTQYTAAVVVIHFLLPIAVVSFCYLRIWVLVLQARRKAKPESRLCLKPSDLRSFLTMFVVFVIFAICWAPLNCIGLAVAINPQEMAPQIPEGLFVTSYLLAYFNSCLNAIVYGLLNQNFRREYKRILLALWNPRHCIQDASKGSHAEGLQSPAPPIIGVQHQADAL
To be noted: 10µM, Favipiravir 100μM.

[13] abbreviates: read-out: % GPCR activation compared to TPA, GPBA (G protein-coupled bile acid receptor 1).
[14] abbreviates: read-out: % GPCR activation compared to TPA, GRM8 (glutamate receptor, metabotropic 8).
The mark [15] stands for this setting: read-out: % GPCR activation compared to TPA, ADRB2 (adrenoceptor beta 2, surface).
Setting [16] is: read-out: % GPCR activation compared to TPA, D2 (dopamine receptor D2).
[17] abbreviates: read-out: % GPCR activation compared to TPA, FP (prostaglandin F receptor).
[18] abbreviates: read-out: % GPCR activation compared to TPA, GPCR GPR63 (G Protein-Coupled Receptor 63).
Setting [19] is: read-out: % GPCR activation compared to TPA, AGTR1 (angiotensin II receptor, type 1).
The mark [20] stands for this setting: read-out: % GPCR activation compared to TPA, SSTR4 (somatostatin receptor 4).
Setting [21] is: read-out: % GPCR activation compared to TPA, OPRL1 (opioid Related Nociceptin Receptor 1).
Where [22] appears, read: read-out: % GPCR activation compared to TPA, MRGPRG (MAS-related GPR, member G).
Where [23] appears, read: read-out: % GPCR activation compared to TPA, MT2R (melatonin receptor type 1B).
Where [24] appears, read: GPBA (G protein-coupled bile acid receptor 1), read-out: % GPCR activation compared to TPA.
The mark [25] stands for this setting: GRM8 (glutamate receptor, metabotropic 8), read-out: % GPCR activation compared to TPA.
Where [26] appears, read: ADRB2 (adrenoceptor beta 2, surface), read-out: % GPCR activation compared to TPA.
[27] abbreviates: D2 (dopamine receptor D2), read-out: % GPCR activation compared to TPA.
Setting [28] is: FP (prostaglandin F receptor), read-out: % GPCR activation compared to TPA.
Setting [29] is: AGTR1 (angiotensin II receptor, type 1), read-out: % GPCR activation compared to TPA.
The mark [30] stands for this setting: SSTR4 (somatostatin receptor 4), read-out: % GPCR activation compared to TPA.
Setting [31] is: OPRL1 (opioid Related Nociceptin Receptor 1), read-out: % GPCR activation compared to TPA.
Where [32] appears, read: MRGPRG (MAS-related GPR, member G), read-out: % GPCR activation compared to TPA.
The mark [33] stands for this setting: MT2R (melatonin receptor type 1B), read-out: % GPCR activation compared to TPA.
Setting [34] is: GPCR GPR63 (G Protein-Coupled Receptor 63), read-out: % GPCR activation compared to TPA.

Where two headings read alike, the source gives them in different places.

Sequence of 348 GPCRs (Homo sapiens, UniProt P41146) (P41146 whole entry): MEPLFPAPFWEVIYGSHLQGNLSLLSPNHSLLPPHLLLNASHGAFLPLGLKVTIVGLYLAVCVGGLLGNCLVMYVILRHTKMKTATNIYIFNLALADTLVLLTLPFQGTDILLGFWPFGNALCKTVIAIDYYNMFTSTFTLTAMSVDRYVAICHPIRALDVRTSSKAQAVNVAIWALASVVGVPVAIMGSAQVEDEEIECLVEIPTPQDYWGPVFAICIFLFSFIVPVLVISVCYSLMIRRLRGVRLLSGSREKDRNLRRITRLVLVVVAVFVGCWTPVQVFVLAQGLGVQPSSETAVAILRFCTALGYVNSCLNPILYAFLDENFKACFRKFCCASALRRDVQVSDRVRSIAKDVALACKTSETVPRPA

With `CC(C)OC(=O)[C@H](C)N[P@](=O)(OC[C@H]1O[C@@H](n2ccc(=O)[nH]c2=O)[C@](C)(F)[C@@H]1O)Oc1ccccc1` [sofosbuvir], the activation at 10 µM on 348 GPCRs [1] (setting [13]) was -0.805%; at 348 GPCRs [3] (setting [14]) it was -2.01%; on 348 GPCRs [4] (setting [15]) it was 1.76%; on 348 GPCRs [6] (setting [17]), -2.66%; on 348 GPCRs [7] (setting [18]), 1.22%; on 348 GPCRs [8] (setting [19]), 2.52%. Moreover, the activation at 10 µM is 0.279% at 348 GPCRs [9] (setting [20]), 0.297% on 348 GPCRs [10] (setting [21]) and -2.8% on 348 GPCRs [12] (setting [23]). In addition, the “% GPCR activation compared to TPA” value at 348 GPCRs [2] is listed as -0.9167%. Moreover, the activation at 100 µM on 348 GPCRs [5] (setting [16]) was -0.334%; at 348 GPCRs [11] (setting [22]), -0.28%.
As for `NC(=O)c1nc(F)cnc1O` [favipiravir, 6-fluoro-3-hydroxy-2-pyrazinecarboxamide], the activation at 10 µM on 348 GPCRs [1] (setting [24]) is 0.241%; on 348 GPCRs [3] (setting [25]), -1.56%; on 348 GPCRs [4] (setting [26]), -1%; on 348 GPCRs [6] (setting [28]), 0.208%; on 348 GPCRs [8] (setting [29]), 0.178%; at 348 GPCRs [9] (setting [30]) it was -0.164%. For the same molecule, the results for the activation at 10 µM on 348 GPCRs [10] (setting [31]) and at 348 GPCRs [12] (setting [33]) were -1.44% and -4.78%, respectively. Also, at 348 GPCRs [2], the “% GPCR activation compared to TPA” value was -0.3349%. The activation at 100 µM is 4.37% at 348 GPCRs [5] (setting [27]); -0.607% on 348 GPCRs [7] (GPCR GPR63 (G Protein-Coupled Receptor 63), 100μM, read-out: % GPCR activation compared to TPA); -0.36% on 348 GPCRs [11] (setting [32]).
For the molecule `CCC(CC)COC(=O)[C@H](C)N[P@](=O)(OC[C@H]1O[C@@](C#N)(c2ccc3c(N)ncnn23)[C@H](O)[C@@H]1O)Oc1ccccc1` [remdesivir], the activation at 10 µM at 348 GPCRs [1] (setting [13]) was -1.26%; on 348 GPCRs [3] (setting [14]), -1.11%; at 348 GPCRs [4] (setting [15]), 1.06%; at 348 GPCRs [6] (setting [17]), 1.47%; at 348 GPCRs [7] (setting [18]), 1.1%; at 348 GPCRs [8] (setting [19]), 1.2%. Also, the activation at 10 µM was 0.732% at 348 GPCRs [9] (setting [20]), -1.46% at 348 GPCRs [10] (setting [21]) and -2.11% at 348 GPCRs [12] (setting [23]). Moreover, the activation at 100 µM at 348 GPCRs [5] (setting [16]) was 6.53%; on 348 GPCRs [11] (setting [22]), -0.00101%.
For the molecule `N#C[C@@]1(c2ccc3c(N)ncnn23)O[C@H](CO)[C@@H](O)[C@H]1O` [GS441524], the activation at 10 µM at 348 GPCRs [1] (setting [24]) was -1.79%; at 348 GPCRs [3] (setting [25]) it was -1.24%; at 348 GPCRs [4] (setting [26]), -0.409%; on 348 GPCRs [6] (setting [28]), 0.154%; on 348 GPCRs [7] (setting [34]), 2.45%; on 348 GPCRs [8] (setting [29]), 1.08%. Besides, the activation at 10 µM was -0.36% on 348 GPCRs [9] (setting [30]), -0.87% at 348 GPCRs [10] (setting [31]) and -2.97% at 348 GPCRs [12] (setting [33]). In addition, the “% GPCR activation compared to TPA” value at 348 GPCRs [2] was -0.998%. Besides, the activation at 100 µM on 348 GPCRs [5] (setting [27]) is 4.14%; at 348 GPCRs [11] (setting [32]), -1.34%.
Consider `CC(C)C(=O)OC[C@H]1O[C@@H](n2ccc(NO)nc2=O)[C@H](O)[C@@H]1O` [molnupiravir], for which the activation at 10 µM is -1.97% on 348 GPCRs [1] (setting [24]); -2.47% on 348 GPCRs [3] (setting [25]); 0.263% at 348 GPCRs [4] (setting [26]); -0.35% on 348 GPCRs [6] (setting [28]); -0.167% at 348 GPCRs [7] (setting [34]); -0.396% at 348 GPCRs [8] (setting [29]). Further, the activation at 10 µM on 348 GPCRs [9] (setting [30]) is -1.09%; on 348 GPCRs [10] (setting [31]), -2.5%; on 348 GPCRs [12] (setting [33]), -1.78%. Also, on 348 GPCRs [2], the “% GPCR activation compared to TPA” value came to 0.5462%. In addition, the activation at 100 µM at 348 GPCRs [5] (setting [27]) was -0.0472%; at 348 GPCRs [11] (setting [32]), -1.58%.
